# Assay results as given in PubChem BioAssay (NCI).
#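 Following 48 hours of exposure in 96-well plates, responses at five concentrations were used to interpolate endpoints linearly. GI50: concentration for 50% inhibition of growth. TGI: total growth inhibition.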
# Assays:
# Experiment in all cases: growth of human tumour cells (NCI), 48 h
# HT29 colon = test system: HT29 colon
# SNB-19 CNS = test system: SNB-19 CNS
# MOLT-4 leukemia = test system: MOLT-4 leukemia
# PC-3 prostate = test system: PC-3 prostate
# SK-OV-3 ovarian = test system: SK-OV-3 ovarian
# SW-620 colon = test system: SW-620 colon
# OVCAR-4 ovarian = test system: OVCAR-4 ovarian
# TK-10 renal = test system: TK-10 renal
# UO-31 renal = test system: UO-31 renal
# A498 renal = test system: A498 renal
SMILES,GI50 (HT29 colon),TGI (HT29 colon),GI50 (SNB-19 CNS),TGI (SNB-19 CNS),GI50 (MOLT-4 leukemia),TGI (MOLT-4 leukemia),GI50 (PC-3 prostate) [µM],TGI (PC-3 prostate) [µM],GI50 (SK-OV-3 ovarian),TGI (SK-OV-3 ovarian),GI50 (SW-620 colon),TGI (SW-620 colon),GI50 (OVCAR-4 ovarian),TGI (OVCAR-4 ovarian),GI50 (TK-10 renal),TGI (TK-10 renal),GI50 (UO-31 renal),TGI (UO-31 renal),TGI (A498 renal),GI50 (A498 renal)
Nc1c(C(=O)Nc2ccccn2)sc2nc3c(cc12)CCCCCC3,0.36 µM,5.67 µM,1.22 µM,13.8 µM,0.392 µM,> 50 µM,1.54,12.2,1.91 µM,15.2 µM,0.389 µM,22.7 µM,4.21 µM,15.8 µM,2.87 µM,10.3 µM,4.56 µM,22.2 µM,–,–
CN1CC[C@]23c4c5ccc(O)c4OC2c2[nH]ncc2C[C@H]3[C@H]1C5 (stereo partly drawn),–,> 100 µM,–,> 100 µM,–,> 100 µM,–,> 100,–,> 100 µM,–,–,–,> 100 µM,–,> 100 µM,–,> 100 µM,–,–
CCOc1ccc(/C=C2/C(=O)N=C(N)N=C2N)cc1OCC,–,> 100 µM,–,> 100 µM,–,> 100 µM,–,–,–,> 100 µM,–,> 100 µM,–,> 100 µM,–,> 100 µM,–,> 100 µM,–,–
O=C(O)C1=C(C(=O)O)Oc2ccccc2O1,–,> 100 µM,–,> 100 µM,–,> 100 µM,–,–,–,> 100 µM,–,> 100 µM,–,> 100 µM,–,> 100 µM,–,> 100 µM,> 100 µM,–
CC1(C)CC(O)CC(C)(C)N1.CC1(C)CC(O)CC(C)(C)N1.CC1(C)CC(O)CC(C)(C)N1.CC1(C)CC(O)CC(C)(C)N1.Cl.[Ti],> 100 µM,> 100 µM,–,–,> 100 µM,> 100 µM,–,–,> 100 µM,> 100 µM,> 100 µM,> 100 µM,> 100 µM,> 100 µM,> 100 µM,> 100 µM,> 100 µM,> 100 µM,> 100 µM,> 100 µM
CC(C)c1cc(C(C)C)c(Cl)c(Cl)c1O (tested in a mixture with another compound),–,58.8 µM,–,42.8 µM,–,–,–,40.7,–,–,–,82.1 µM,–,–,–,54.3 µM,–,57.7 µM,–,–
O=S(=O)(Cc1ccccc1)SCc1ccccc1,–,54.1 µM,–,> 100 µM,–,14.3 µM,–,–,–,97.3 µM,–,15.5 µM,–,54 µM,–,99.2 µM,–,> 100 µM,73.6 µM,–
COc1cc2c3c(n(CCCN4CCSCC4)c(=O)c2cc1OC)-c1cc2c(cc1C3=O)OCO2,> 100 µM,> 100 µM,53.8 µM,> 100 µM,0.632 µM,13.4 µM,42.8,> 100,88.1 µM,> 100 µM,96.8 µM,> 100 µM,> 100 µM,> 100 µM,27.2 µM,82.9 µM,> 100 µM,> 100 µM,–,–
Nc1c(-c2nc3ccccc3s2)[n+]([O-])c2ccccc2[n+]1[O-],–,> 100 µM,–,> 100 µM,–,> 100 µM,–,–,–,88.9 µM,–,> 100 µM,–,> 100 µM,–,> 100 µM,–,77.7 µM,> 100 µM,–
Nc1nc(-c2ccccc2)cc(-c2cc(Cl)ccc2O)n1,–,> 100 µM,–,> 100 µM,–,> 100 µM,–,–,–,77.8 µM,–,> 100 µM,–,> 100 µM,–,> 100 µM,–,> 100 µM,> 100 µM,–
NNC(=O)N/N=C1\CNC(=O)C(=O)C1c1nc2ccccc2s1 (stereo not drawn),–,> 100 µM,–,> 100 µM,–,–,–,–,–,> 100 µM,–,> 100 µM,–,> 100 µM,–,> 100 µM,–,> 100 µM,> 100 µM,–
CC1(C)OC2OC(COC(=O)C(c3ccccc3)c3ccccc3)C3OC(C)(C)OC3C2O1 (stereo not drawn),–,> 100 µM,–,> 100 µM,3.76 µM,> 100 µM,–,–,> 100 µM,> 100 µM,–,> 100 µM,–,> 100 µM,> 100 µM,> 100 µM,–,> 100 µM,> 100 µM,> 100 µM
CC(=O)c1c(O)c2c([nH]c1=O)CCCC2,–,> 100 µM,–,33.9 µM,–,> 100 µM,–,–,–,48.5 µM,–,> 100 µM,–,> 100 µM,–,> 100 µM,–,31.2 µM,–,–
c1ccc2c(c1)[O][Sn][O]2,95.4 µg/mL,> 150 µg/mL,61.5 µg/mL,> 150 µg/mL,7.16 µg/mL,> 150 µg/mL,–,–,> 150 µg/mL,> 150 µg/mL,69 µg/mL,> 150 µg/mL,102 µg/mL,> 150 µg/mL,101 µg/mL,> 150 µg/mL,12.6 µg/mL,> 150 µg/mL,> 150 µg/mL,41.2 µg/mL
CC(C)=CC(=O)CC(=O)C(=O)NCCNC(=O)C(=O)CC(=O)C=C(C)C,–,> 50 µM,–,> 50 µM,–,–,–,–,–,> 50 µM,–,> 50 µM,–,> 50 µM,–,> 50 µM,–,> 50 µM,> 50 µM,–
CCOC(=O)COc1cccc2occc(=O)c12,–,> 100 µM,–,> 100 µM,–,> 100 µM,–,–,–,> 100 µM,–,> 100 µM,–,> 100 µM,–,> 100 µM,–,> 100 µM,> 100 µM,–
COC(=O)c1ccc2c(c1)C(=O)c1c-2n(CCCCl)c(=O)c2cc(OC)c(OC)cc12,> 100 µM,> 100 µM,> 100 µM,> 100 µM,–,–,> 100,> 100,44.1 µM,> 100 µM,> 100 µM,> 100 µM,> 100 µM,> 100 µM,> 100 µM,> 100 µM,> 100 µM,> 100 µM,–,–
O=C(CN(/C=C/C(=O)C(F)(F)F)c1ccccc1)c1ccc(F)cc1,38.9 µM,> 100 µM,46 µM,> 100 µM,23.6 µM,79.8 µM,29,> 100,55 µM,> 100 µM,19.9 µM,42.9 µM,42.5 µM,> 100 µM,33 µM,> 100 µM,33.8 µM,> 100 µM,–,–
